Laboratory results published in paper PMC7822065, “Discovery of indole-3-butyric acid derivatives as potent histone deacetylase inhibitors” (Journal of Enzyme Inhibition and Medicinal Chemistry, 2021).
Where two headings read alike, the source gives them in different places.

Tests used:
[1] = tested on: A2780 cells; experiment: MTT antiproliferative assay, A2780; assay type: cell-based; conditions: for IC50: Homo sapiens
Method: (§1) The stock solutions of tested compounds were diluted with culture medium. Briefly, the cells were seeded into each well of 96-well plate, which were incubated at 37 °C, 5% CO2 until confluency 90–95%. Then, the cells were treated with compound sample at various concentrations for 48 h. Afterward, […] working solution (5 mg/ml) was added to each well and incubated for another 4 h. After incubation, the […] formed from MTT was extracted by adding DMSO (200 µl). The optical density (OD) at 490 nm and 630 nm were measured by Universal Microplate Spectrophotometer. […] The IC50 values were calculated with Origin 7.5 software (Originlab Corporation, Northampton, MA), and standard deviations of the IC50 values were obtained through at least 3 independent experiments.
A series of tumour cell lines including the lung cancer A549, Calu-3, SPC-A-1, H322, H1299, breast cancer MDA-MB-231, MCF-7, MDA-MB-468, colon carcinoma LoVo, Colo205, ovarian cancer A2780, SKOV3, gastric cancer MKN45, pancreatic cancer PNAC-1, leukemic K562, and multiple myeloma OPM2 cells were cultured for the antiproliferative assay of active compound I13. In the present study, molecule I13 could inhibit the growth of both solid and haematologic tumour cell lines (Table 4). […]. The antiproliferative activity of molecule I13 was considered to be restricted by the poor enzyme inhibitory selectivity. Enhancement of selectivity could be a useful strategy to improve the anticancer activity of this group of HDACIs.

[2] = tested on: HepG2 xenograft; conditions: for mean weight of tumours: n = 7
[3] = tested on: HepG2 cells; experiment: Annexin V/PI cell apoptosis assay (flow cytometry); conditions: annexin V-FITC/PI
Method: After 10 min of incubation, 1 µl PI was added to each sample and mixed gently. After incubation at room temperature for another 20 min in the dark, cells were subjected to flow cytometer (CytoFLEX, Beckman Coulter, Brea, CA).

[4] = tested on: MDA-MB-468 cells; experiment: MTT antiproliferative assay, MDA-MB-468; assay type: cell-based; conditions: Homo sapiens, breast carcinoma
Method: as §1, with “Briefly, the cells were seeded into each well of 96-well plate, which were incubated at 37 °C, 5% CO2 until confluency 90–95%.” left out

[5] = tested on: MKN45 cells; experiment: MTT antiproliferative assay, MKN45; assay type: cell-based; conditions: Homo sapiens, MKN-45, gastric cancer
Method: as §1, with “Briefly, the cells were seeded into each well of 96-well plate, which were incubated at 37 °C, 5% CO2 until confluency 90–95%.” left out

[6] = tested on: HepG2 cells; experiment: MTT antiproliferative assay, HepG2
Method: (§2) The stock solutions of tested compounds were diluted with culture medium. […] Then, the cells were treated with compound sample at various concentrations for 48 h. Afterward, 20 MTT working solution (5 mg/ml) was added to each well and incubated for another 4 h. After incubation, the medium formed from MTT was extracted by adding DMSO (200 µl). The optical density (OD) at 490 nm and 630 nm were measured by Universal Microplate Spectrophotometer. […] The IC50 values were calculated with Origin 7.5 software (Originlab Corporation, Northampton, MA), and standard deviations of the IC50 values were obtained through at least 3 independent experiments.

[7] = target: HDAC3 (Homo sapiens, UniProt O15379); experiment: In vitro HDACs inhibitory assay, recombinant HDAC3
Sequence of HDAC3 (O15379 whole entry): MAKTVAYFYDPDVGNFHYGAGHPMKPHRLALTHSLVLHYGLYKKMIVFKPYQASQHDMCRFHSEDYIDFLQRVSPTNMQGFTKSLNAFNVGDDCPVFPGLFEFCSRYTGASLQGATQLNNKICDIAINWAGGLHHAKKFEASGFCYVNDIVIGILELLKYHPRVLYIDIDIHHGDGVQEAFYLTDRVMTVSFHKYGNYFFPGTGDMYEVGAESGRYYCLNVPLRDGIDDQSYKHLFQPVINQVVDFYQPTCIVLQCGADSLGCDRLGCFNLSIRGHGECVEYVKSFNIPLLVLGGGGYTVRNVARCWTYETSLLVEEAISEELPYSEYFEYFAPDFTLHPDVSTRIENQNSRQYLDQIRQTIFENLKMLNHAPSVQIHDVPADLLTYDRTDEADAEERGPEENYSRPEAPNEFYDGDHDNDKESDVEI
Sequence of HDAC3 (Q9Y618 395-489 partner limits assumed): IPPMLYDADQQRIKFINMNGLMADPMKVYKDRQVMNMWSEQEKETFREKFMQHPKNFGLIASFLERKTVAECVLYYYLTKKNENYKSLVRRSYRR
Method: (§3) All of the HDAC enzymes were purchased from BPS Bioscience (San Diego, CA). Briefly, 20 μl of HeLa nucleus extract or recombinant HDAC enzyme solution was mixed with various concentrations of tested compound (20 μl). The mixture was incubated at 30 °C for 1 h (for the time-dependent assay, the mixture was incubated for 15, 30, 60, and 90 min, respectively), then 10 μl of fluorogenic substrate (Boc-Lys (acetyl)-AMC (3 mM) for HDAC1, 2, 3, and 6, Boc-Lys (trifluoroacetyl)-AMC (3 mM) for HDAC 4, 7, 8, and 9) was added. After incubation at 30 °C for 2 h, the catalytic reaction was stopped by addition of 10 μl of developer containing trypsin and trichostatin A (TSA). After 30 min, fluorescence intensity was measured using a microplate reader at excitation and emission wavelengths of 360 and 460 nm, respectively. The inhibition ratios were calculated from the fluorescence intensity readings of tested wells relative to those of control wells, and the IC50 curves and values were determined by GraphPad Prism 6.0 software (La Jolla, CA).

[8] = tested on: K562 cells; experiment: MTT antiproliferative assay, K562; assay type: cell-based; conditions: Homo sapiens, leukemia
Method: as §1, with “Briefly, the cells were seeded into each well of 96-well plate, which were incubated at 37 °C, 5% CO2 until confluency 90–95%.” left out

[9] = tested on: SKOV3 cells; experiment: MTT antiproliferative assay, SKOV3; assay type: cell-based; conditions: Homo sapiens, SK-OV-3, ovarian cancer
Method: as §1, with “Briefly, the cells were seeded into each well of 96-well plate, which were incubated at 37 °C, 5% CO2 until confluency 90–95%.” left out

[10] = target: HDAC2 (Homo sapiens, UniProt Q92769); experiment: In vitro HDACs inhibitory assay, recombinant HDAC2
Sequence of HDAC2 (Q92769 whole entry): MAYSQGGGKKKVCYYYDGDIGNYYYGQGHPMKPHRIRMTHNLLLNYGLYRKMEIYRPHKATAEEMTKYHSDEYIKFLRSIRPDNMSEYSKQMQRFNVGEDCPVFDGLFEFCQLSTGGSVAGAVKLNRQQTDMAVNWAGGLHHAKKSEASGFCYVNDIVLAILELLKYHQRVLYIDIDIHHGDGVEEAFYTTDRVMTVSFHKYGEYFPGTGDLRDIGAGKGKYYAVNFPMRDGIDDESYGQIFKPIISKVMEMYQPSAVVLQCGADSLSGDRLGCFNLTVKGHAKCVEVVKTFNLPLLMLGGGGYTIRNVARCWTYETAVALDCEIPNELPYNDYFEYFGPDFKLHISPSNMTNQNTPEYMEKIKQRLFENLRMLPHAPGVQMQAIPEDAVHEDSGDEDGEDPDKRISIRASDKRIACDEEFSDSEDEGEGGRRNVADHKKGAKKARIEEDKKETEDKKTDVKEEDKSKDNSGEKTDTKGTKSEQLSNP
Method: as §3

[11] = tested on: SPC-A-1 cells; experiment: MTT antiproliferative assay, SPC-A-1; assay type: cell-based; conditions: SPCA1, lung cancer
Method: as §1, with “Briefly, the cells were seeded into each well of 96-well plate, which were incubated at 37 °C, 5% CO2 until confluency 90–95%.” left out

[12] = target: HDAC6 (Homo sapiens, UniProt Q9UBN7); experiment: In vitro HDACs inhibitory assay, recombinant HDAC6
Sequence of HDAC6 (Q9UBN7 whole entry): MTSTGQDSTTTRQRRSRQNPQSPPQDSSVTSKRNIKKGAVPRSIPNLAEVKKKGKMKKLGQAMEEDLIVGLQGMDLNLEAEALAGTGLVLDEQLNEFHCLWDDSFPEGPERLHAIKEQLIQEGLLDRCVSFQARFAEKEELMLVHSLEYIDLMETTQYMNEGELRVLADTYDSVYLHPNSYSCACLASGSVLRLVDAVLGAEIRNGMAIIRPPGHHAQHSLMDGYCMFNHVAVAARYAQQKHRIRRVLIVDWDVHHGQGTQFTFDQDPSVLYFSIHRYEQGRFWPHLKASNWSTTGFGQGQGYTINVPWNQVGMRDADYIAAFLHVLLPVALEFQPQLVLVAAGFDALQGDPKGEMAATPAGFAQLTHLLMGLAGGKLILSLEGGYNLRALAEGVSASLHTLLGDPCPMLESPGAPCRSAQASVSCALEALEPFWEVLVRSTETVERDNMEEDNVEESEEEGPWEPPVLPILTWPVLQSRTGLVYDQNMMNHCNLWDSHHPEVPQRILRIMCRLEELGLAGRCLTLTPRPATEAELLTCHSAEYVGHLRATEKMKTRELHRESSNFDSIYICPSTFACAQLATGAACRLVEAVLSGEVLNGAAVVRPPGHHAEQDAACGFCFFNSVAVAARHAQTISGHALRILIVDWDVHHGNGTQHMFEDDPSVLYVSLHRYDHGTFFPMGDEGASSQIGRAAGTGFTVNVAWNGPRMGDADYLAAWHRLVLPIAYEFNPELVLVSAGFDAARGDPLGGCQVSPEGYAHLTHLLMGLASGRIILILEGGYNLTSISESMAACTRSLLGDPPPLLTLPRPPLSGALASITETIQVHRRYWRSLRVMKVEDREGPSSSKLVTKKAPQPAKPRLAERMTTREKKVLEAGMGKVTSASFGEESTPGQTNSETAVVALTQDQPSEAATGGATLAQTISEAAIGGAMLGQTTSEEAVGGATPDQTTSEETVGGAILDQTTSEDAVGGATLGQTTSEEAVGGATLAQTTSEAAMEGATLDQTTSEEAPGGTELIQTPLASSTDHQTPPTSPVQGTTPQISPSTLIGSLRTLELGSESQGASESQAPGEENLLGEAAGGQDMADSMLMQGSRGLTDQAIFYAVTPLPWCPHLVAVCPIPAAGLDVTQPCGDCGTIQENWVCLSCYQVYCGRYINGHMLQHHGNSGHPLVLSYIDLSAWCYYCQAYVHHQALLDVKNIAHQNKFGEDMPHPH
Method: as §3

[13] = tested on: MCF-7 cells; experiment: MTT antiproliferative assay, MCF-7; assay type: cell-based; conditions: Homo sapiens, MCF7, breast carcinoma
Method: as §1, with “Briefly, the cells were seeded into each well of 96-well plate, which were incubated at 37 °C, 5% CO2 until confluency 90–95%.” left out

[14] = tested on: Colo205 cells; experiment: MTT antiproliferative assay, Colo205; assay type: cell-based; conditions: Homo sapiens, COLO 205, colon carcinoma
Method: as §1, with “Briefly, the cells were seeded into each well of 96-well plate, which were incubated at 37 °C, 5% CO2 until confluency 90–95%.” left out

[15] = tested on: A549 cells; experiment: MTT antiproliferative assay, A549; assay type: cell-based; conditions: Homo sapiens, lung cancer
Method: as §1, with “Briefly, the cells were seeded into each well of 96-well plate, which were incubated at 37 °C, 5% CO2 until confluency 90–95%.” left out

[16] = target: HDAC8 (Homo sapiens, UniProt Q9BY41); experiment: In vitro HDACs inhibitory assay, recombinant HDAC8
Sequence of HDAC8 (Q9BY41 whole entry): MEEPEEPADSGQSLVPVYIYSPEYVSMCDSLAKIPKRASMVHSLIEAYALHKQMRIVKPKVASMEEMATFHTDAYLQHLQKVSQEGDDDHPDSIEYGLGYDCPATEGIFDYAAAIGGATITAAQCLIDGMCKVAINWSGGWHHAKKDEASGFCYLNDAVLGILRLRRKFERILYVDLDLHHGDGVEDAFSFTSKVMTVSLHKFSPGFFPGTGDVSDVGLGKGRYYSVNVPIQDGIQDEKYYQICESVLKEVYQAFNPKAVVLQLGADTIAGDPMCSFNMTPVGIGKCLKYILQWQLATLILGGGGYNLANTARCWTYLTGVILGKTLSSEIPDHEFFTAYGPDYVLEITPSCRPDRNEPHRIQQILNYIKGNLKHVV
Method: as §3

[17] = target: HDAC4 (Homo sapiens, UniProt P56524); experiment: In vitro HDACs inhibitory assay, recombinant HDAC4
Method: as §3

[18] = tested on: H322 cells; experiment: MTT antiproliferative assay, H322; assay type: cell-based; conditions: NCI-H322, lung cancer
Method: as §1, with “Briefly, the cells were seeded into each well of 96-well plate, which were incubated at 37 °C, 5% CO2 until confluency 90–95%.” left out

[19] = tested on: U937 cells; experiment: MTT antiproliferative assay, U937; conditions: Homo sapiens, U-937, 48 h, read-out: U937 IC50
Method: as §2

[20] = Water solubility; assay type: physicochemical
[21] = target: HDAC7 (Homo sapiens, UniProt Q8WUI4); experiment: In vitro HDACs inhibitory assay, recombinant HDAC7
Sequence of HDAC7 (Q8WUI4 whole entry): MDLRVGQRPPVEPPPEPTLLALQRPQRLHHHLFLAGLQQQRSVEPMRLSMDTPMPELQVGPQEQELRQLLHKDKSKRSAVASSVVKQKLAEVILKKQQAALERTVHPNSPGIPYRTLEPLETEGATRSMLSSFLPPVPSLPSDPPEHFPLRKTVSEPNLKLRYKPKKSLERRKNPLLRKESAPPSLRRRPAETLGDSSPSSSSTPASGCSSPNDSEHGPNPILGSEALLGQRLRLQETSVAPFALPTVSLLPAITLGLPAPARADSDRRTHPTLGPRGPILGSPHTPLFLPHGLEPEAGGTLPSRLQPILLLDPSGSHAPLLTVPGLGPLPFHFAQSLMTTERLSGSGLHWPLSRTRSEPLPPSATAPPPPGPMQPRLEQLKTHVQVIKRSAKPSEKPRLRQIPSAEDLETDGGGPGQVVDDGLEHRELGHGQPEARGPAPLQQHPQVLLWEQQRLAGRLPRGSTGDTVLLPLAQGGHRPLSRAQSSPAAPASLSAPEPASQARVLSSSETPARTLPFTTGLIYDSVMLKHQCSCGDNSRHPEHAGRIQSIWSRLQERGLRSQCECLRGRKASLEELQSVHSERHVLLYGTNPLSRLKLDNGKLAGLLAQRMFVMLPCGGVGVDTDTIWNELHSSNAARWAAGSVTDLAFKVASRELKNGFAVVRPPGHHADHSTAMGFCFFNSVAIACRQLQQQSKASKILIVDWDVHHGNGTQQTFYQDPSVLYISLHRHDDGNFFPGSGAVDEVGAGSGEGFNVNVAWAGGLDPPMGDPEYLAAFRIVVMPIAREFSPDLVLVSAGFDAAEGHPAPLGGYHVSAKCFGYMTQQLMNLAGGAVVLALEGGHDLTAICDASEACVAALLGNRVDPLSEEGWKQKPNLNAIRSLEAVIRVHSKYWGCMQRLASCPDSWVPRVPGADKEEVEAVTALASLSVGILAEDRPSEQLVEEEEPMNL
Method: as §3

[22] = tested on: H1299 cells; experiment: MTT antiproliferative assay, H1299; assay type: cell-based; conditions: Homo sapiens, NCI-H1299, lung cancer
Method: as §1, with “Briefly, the cells were seeded into each well of 96-well plate, which were incubated at 37 °C, 5% CO2 until confluency 90–95%.” left out

[23] = target: HDAC1 (Homo sapiens, UniProt Q13547); experiment: In vitro HDACs inhibitory assay, recombinant HDAC1
Sequence of HDAC1 (Q13547 whole entry): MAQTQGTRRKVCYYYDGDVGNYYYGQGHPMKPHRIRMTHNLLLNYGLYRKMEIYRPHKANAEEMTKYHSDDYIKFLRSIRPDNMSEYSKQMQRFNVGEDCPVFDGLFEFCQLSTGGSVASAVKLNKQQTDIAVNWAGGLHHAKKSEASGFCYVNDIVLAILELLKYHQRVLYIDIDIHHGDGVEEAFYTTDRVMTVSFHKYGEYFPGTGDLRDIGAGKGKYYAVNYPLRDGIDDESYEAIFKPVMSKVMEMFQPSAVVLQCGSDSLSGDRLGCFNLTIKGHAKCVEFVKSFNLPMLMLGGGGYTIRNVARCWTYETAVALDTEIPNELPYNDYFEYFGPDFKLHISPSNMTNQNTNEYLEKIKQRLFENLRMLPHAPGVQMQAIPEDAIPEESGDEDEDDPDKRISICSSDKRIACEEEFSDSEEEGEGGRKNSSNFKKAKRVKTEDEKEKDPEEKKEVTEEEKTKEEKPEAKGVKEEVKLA
Method: as §3

[24] = tested on: PNAC-1 cells; experiment: MTT antiproliferative assay, PNAC-1; assay type: cell-based
Method: as §1, with “Briefly, the cells were seeded into each well of 96-well plate, which were incubated at 37 °C, 5% CO2 until confluency 90–95%.” left out

[25] = tested on: Calu-3 cells; experiment: MTT antiproliferative assay, Calu-3; assay type: cell-based; conditions: Homo sapiens, lung cancer
Method: as §1, with “Briefly, the cells were seeded into each well of 96-well plate, which were incubated at 37 °C, 5% CO2 until confluency 90–95%.” left out

[26] = target: HDAC9 (Homo sapiens, UniProt Q9UKV0); experiment: In vitro HDACs inhibitory assay, recombinant HDAC9
Sequence of HDAC9 (Q9UKV0 whole entry): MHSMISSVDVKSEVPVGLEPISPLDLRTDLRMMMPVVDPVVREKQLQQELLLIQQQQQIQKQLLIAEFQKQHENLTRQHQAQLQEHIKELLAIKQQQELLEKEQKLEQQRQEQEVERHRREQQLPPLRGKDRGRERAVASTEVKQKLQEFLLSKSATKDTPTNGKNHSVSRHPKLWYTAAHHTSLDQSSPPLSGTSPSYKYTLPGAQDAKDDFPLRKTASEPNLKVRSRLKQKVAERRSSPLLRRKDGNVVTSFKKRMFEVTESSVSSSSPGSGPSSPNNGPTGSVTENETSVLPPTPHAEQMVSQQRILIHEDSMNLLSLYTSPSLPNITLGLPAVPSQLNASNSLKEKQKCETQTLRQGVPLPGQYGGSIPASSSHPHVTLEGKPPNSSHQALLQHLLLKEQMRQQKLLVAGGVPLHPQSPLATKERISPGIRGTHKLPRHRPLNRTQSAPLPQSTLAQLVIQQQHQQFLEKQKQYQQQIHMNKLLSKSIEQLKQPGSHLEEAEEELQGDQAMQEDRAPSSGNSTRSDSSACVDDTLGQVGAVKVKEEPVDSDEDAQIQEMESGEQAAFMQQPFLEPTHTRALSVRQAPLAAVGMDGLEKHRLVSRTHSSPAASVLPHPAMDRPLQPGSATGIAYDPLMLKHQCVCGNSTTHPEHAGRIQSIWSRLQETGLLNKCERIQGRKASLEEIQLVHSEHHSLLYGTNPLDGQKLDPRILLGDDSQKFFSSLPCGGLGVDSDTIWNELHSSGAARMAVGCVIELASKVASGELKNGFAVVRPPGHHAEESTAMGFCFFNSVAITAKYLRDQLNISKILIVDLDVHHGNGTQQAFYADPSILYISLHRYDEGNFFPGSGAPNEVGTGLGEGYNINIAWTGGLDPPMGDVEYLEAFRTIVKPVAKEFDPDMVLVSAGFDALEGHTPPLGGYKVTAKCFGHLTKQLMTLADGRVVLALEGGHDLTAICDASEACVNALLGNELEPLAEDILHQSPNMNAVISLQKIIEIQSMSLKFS
Method: as §3

[27] = tested on: LoVo cells; experiment: MTT antiproliferative assay, LoVo; assay type: cell-based; conditions: Homo sapiens, colon carcinoma
Method: as §1, with “Briefly, the cells were seeded into each well of 96-well plate, which were incubated at 37 °C, 5% CO2 until confluency 90–95%.” left out

[28] = tested on: U266 cells; experiment: MTT antiproliferative assay, U266
Method: as §2
To evaluate the antiproliferative activity of hydroxamic acid containing molecules, MTT assays were performed using U937, U266, and HepG2 cell lines.

[29] = tested on: OPM2 cells; experiment: MTT antiproliferative assay, OPM2; assay type: cell-based; conditions: Homo sapiens, OPM-2, multiple myeloma
Method: as §1, with “Briefly, the cells were seeded into each well of 96-well plate, which were incubated at 37 °C, 5% CO2 until confluency 90–95%.” left out

[30] = tested on: MDA-MB-231 cells; experiment: MTT antiproliferative assay, MDA-MB-231; assay type: cell-based; conditions: Homo sapiens, breast carcinoma
Method: as §1, with “Briefly, the cells were seeded into each well of 96-well plate, which were incubated at 37 °C, 5% CO2 until confluency 90–95%.” left out

[31] = tested on: HDACs (HeLa nucleus extract containing a mixture of HDAC isoforms); experiment: HDAC inhibitory assay with HeLa nucleus extract; conditions: at the concentration of 1 µM
[32] = 50 mg/kg/d intragastric, 16 days, HepG2 xenograft

O=C(CCCCCCC(=O)Nc1ccccc1)NO [SAHA, Suberoylanilide hydroxamic acid, reference compound]
IC50 ([1]; A2780, read-out: A2780 IC50): 27300 nM | mean weight of tumours ([2]; 100 mg/kg/d intragastric, 16 days, HepG2 xenograft): 0.322 g | flow cytometry quadrant Q1-LL ([3]; HepG2, 0.2 μM): 88.86% | flow cytometry quadrant Q1-LR ([3]; HepG2, 0.2 μM): 5.30% | flow cytometry quadrant Q1-UL ([3]; HepG2, 0.2 μM): 0.05% | flow cytometry quadrant Q1-UR ([3]; HepG2, 0.2 μM): 5.79% | flow cytometry quadrant Q1-LL ([3]; HepG2, 0.8 μM): 86.03% | flow cytometry quadrant Q1-LR ([3]; HepG2, 0.8 μM): 7.73% | flow cytometry quadrant Q1-UL ([3]; HepG2, 0.8 μM): 0.01% | flow cytometry quadrant Q1-UR ([3]; HepG2, 0.8 μM): 6.23%

Cn1cc(CCCC(=O)Nc2ccc(C(=O)NO)cc2)c2ccccc21 [Compound I13, 4-(4-(1-Methyl-1H-indol-3-yl)butanamido)-N-hydroxybenzamide]
IC50 [4]: 1340 nM | IC50 ([1]; A2780, ovarian cancer, MTT, read-out: A2780 IC50): 4600 nM | fold more active than SAHA, A2780 cells ([1]; ratio of IC50 values): 5.9 fold | IC50 [5]: 18200 nM | IC50 ([6]; Homo sapiens, HepG2, 48 h, read-out: HepG2 IC50): 1850 ± 310 nM | fold more active than SAHA, HepG2 cells ([6]; ratio of IC50 values): 4.7 fold | IC50 [7]: 12.1 nM | IC50 [8]: 2870 nM | IC50 [9]: 1440 nM | IC50 [10]: 49.9 nM | IC50 [11]: 810 nM | IC50 [12]: 7.71 nM | IC50 [13]: 6340 nM | IC50 [14]: 2420 nM | IC50 [15]: 3150 nM | toxic signs in liver and spleen ([2]; 50 mg/kg/d intragastric, 16 days): no obvious toxic signs in liver and spleen were detected | tumour inhibitory ratio [2, 32]: 33.1% | mean weight of tumours [2, 32]: 0.303 g | mice body weight loss ([2]; mouse, in vivo): No evidence of mice body weight (measured every two days) loss | IC50 [16]: 284 nM | IC50 [17]: > 5000 nM | IC50 [18]: 14900 nM | IC50 [19]: 930 ± 80 nM | water solubility [20]: good water solubility | ratio of apoptotic cells ([3]; HepG2, 0.2 µM, 24 h): 11.56% | flow cytometry quadrant Q1-LL ([3]; HepG2, 0.2 μM): 88.42% | flow cytometry quadrant Q1-LR ([3]; HepG2, 0.2 μM): 6.12% | flow cytometry quadrant Q1-UL ([3]; HepG2, 0.2 μM): 0.02% | flow cytometry quadrant Q1-UR ([3]; HepG2, 0.2 μM): 5.44% | flow cytometry quadrant Q1-LL ([3]; HepG2, 0.8 μM): 67.38% | flow cytometry quadrant Q1-LR ([3]; HepG2, 0.8 μM): 21.27% | flow cytometry quadrant Q1-UL ([3]; HepG2, 0.8 μM): 0.07% | flow cytometry quadrant Q1-UR ([3]; HepG2, 0.8 μM): 11.28% | IC50 [21]: 326 nM | IC50 [22]: 7670 nM | IC50 [23]: 13.9 nM | IC50 ([24]; pancreatic cancer, MTT): 1170 nM | fold more active than SAHA, PNAC-1 cells ([24]; ratio of IC50 values): 5.6 fold | IC50 [25]: 1260 nM | IC50 [26]: > 5000 nM | IC50 [27]: 2190 nM | IC50 ([28]; Homo sapiens, U-266, 48 h, read-out: U266 IC50): 160 ± 40 nM | fold more active than SAHA, U266 cells ([28]; ratio of IC50 values): 5.5 fold | IC50 [29]: 230 nM | IC50 [30]: 780 nM | HDACs, percentage inhibition rate (PIR) [31]: 82.19 ± 1.60%
